Source: article PMC3265130 (ACS Chemical Biology, 2011)
Residues, ends and D or L forms follow the SMILES beside them. *: point of attachment. 5FAM = O=C1OC2(c3ccc(O)cc3Oc3cc(O)ccc32)c2ccc(C(=O)*)cc21; Ahx = NCCCCCC(=O)O; X1 = CNCC*

Legend:
L3MBTL1 3xMBT = target: T1, L3MBTL1 3xMBT (Homo sapiens, UniProt Q9Y468); format: binding; settings: site H4K20me1
T1 sequence (Q9Y468 197-526 isoform Q9Y468-1): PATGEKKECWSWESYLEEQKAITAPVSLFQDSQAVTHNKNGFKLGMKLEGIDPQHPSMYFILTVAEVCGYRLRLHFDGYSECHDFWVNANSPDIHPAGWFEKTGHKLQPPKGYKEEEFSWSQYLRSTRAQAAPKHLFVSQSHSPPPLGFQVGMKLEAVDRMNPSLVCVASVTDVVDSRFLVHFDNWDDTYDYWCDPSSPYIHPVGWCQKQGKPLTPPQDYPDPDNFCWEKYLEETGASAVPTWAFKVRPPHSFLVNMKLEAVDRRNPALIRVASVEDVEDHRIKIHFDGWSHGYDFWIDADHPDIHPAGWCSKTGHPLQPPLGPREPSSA

53BP1 Tudor domain = 53BP1 Tudor domain (Homo sapiens, UniProt Q12888); experiment: Fluorescence polarization binding of 53BP1 Tudor domain to histone H4 peptides; settings: FP; result in words; methyl-lysine analogue peptide, site H4K20me2
Chain of 53BP1 Tudor domain (Q12888 1484-1603): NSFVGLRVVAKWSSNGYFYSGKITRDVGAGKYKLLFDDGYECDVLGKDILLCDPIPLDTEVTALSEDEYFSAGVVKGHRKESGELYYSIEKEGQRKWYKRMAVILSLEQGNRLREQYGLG

| ΔG(KCme) (L3MBTL1 3xMBT; FP, 25 °C, binding free energy, methyl-lysine analogue peptide) | ΔΔG(exp) (L3MBTL1 3xMBT; ΔG(KCme) – ΔG(Kme) from FP Kd) | binding to the methyl-lysine analogue containing target (53BP1 Tudor domain) | Compound |
| --- | --- | --- | --- |
| –24.6 ± 0.2 kJ/mol | 5.1 ± 0.3 kJ/mol |  | CC[C@H](C)[C@H](NC(=O)[C@H](CC(N)=O)NC(=O)[C@H](CC(=O)O)NC(=O)[C@H](CCCNC(=N)N)NC(=O)[C@H](CC(C)C)NC(=O)[C@@H](NC(=O)[C@H](CSCCNC)NC(=O)[C@H](CCCNC(=N)N)NC(=O)[C@H](Cc1c[nH]cn1)NC(=O)[C@H](CCCNC(=N)N)NC(=O)[C@H](CCCCN)NC(=O)[C@H](C)NC(=O)CNC(=O)CNC(=O)[C@H](CCCCN)NC(=O)CCCCCNC(=O)c1ccc2c(c1)C(=O)OC21c2ccc(O)cc2Oc2cc(O)ccc21)C(C)C)C(=O)N[C@@H](CCC(N)=O)C(N)=O [Fl-H4(12–27)KC20me1] ({5FAM-Ahx}-KGGAKRHRC(X1)VLRDNIQ-NH2) |
|  |  | no binding | fluoresceine-KGGAKRHRKC(me1)VLRDNIQ [Fl-H4(12–27)KC20me2] |
